Test system: male spontaneously hypertensive rats
Test: Decrease in systolic blood pressure in spontaneously hypertensive rats after intravenous bolus injection, indirect (tail-cuff) method
Assay type: in vivo, rat
Conditions: dose 10 mg/kg i.v. bolus; for Decrease in systolic blood pressure (mmHg) time after administration (hour) 0.5: 0.5 hour after administration; for Decrease in systolic blood pressure (mmHg) time after administration (hour) 4: 4 hours after administration
Procedure: As test animals, four male spontaneously hypertensive rats (weight 400 to 440 g) that were sufficiently adapted for feeding and in which hypertension was confirmed were used.
Physiological saline aqueous solution containing 2.5% Nicolle and 2.5% ethanol of sample was intravenously administered by bolus injection at a dose of 1 ml per 1 kg of body weight. Systolic blood pressure after administration was measured by the indirect (tail-cuff) method.

**Q.** Which “Decrease in systolic blood pressure (mmHg) time after administration (hour) 0.5” value (“Decrease in systolic blood pressure … (hour) 0.5” below) does the source give for `CCCCCCCCCC(=O)N1CCC(=C2c3ccccc3C=Cc3ccccc32)CC1` [Example 164, 1-Decanolyl-4-(5H-dibenzo[a,d]cyclohepten-5-ylidene)piperidine] here?
**A.** −91 mmHg

**Q.** What about the “Decrease in systolic blood pressure (mmHg) time after administration (hour) 4” value (from here on “Decrease in systolic blood pressure … (hour) 4”) of the same compound?
**A.** −22 mmHg

**Q.** With `Cl.N#CCCCN1CCC(=C2c3ccccc3C=Cc3ccccc32)CC1` [Example 165, 1-Cyano-3-[4-(5H-dibenzo[a,d]cyclohepten-5-ylidene)-1-piperidinyl)propane hydrochloride] as the compound, how does the “Decrease in systolic blood pressure … (hour) 0.5” value (hydrochloride, 10 mg/kg) read?
**A.** −22 mmHg

**Q.** What about the “Decrease in systolic blood pressure … (hour) 4” value (hydrochloride, 10 mg/kg) of the same compound?
**A.** 12 mmHg

**Q.** Which “Decrease in systolic blood pressure … (hour) 0.5” value (hydrochloride, 10 mg/kg) does the source give for `Cl.N#CCCCN1CCC(=C2c3ccccc3C=Cc3ccccc32)CC1` [Example 166, 1-Cyano-4-[4-(5H-dibenzo[a,d]cyclohepten-5-ylidene)-1-piperidinyl)propane hydrochloride] here?
**A.** −45 mmHg

**Q.** What about the “Decrease in systolic blood pressure … (hour) 4” value (hydrochloride, 10 mg/kg) of the same compound?
**A.** 6 mmHg

**Q.** What does the source list for `COc1ccc(C(=O)CCN2CCC(=C3c4ccccc4C=Cc4ccccc43)CC2)cc1OC.Cl` [Example 168, 3-(4-(5H-Dibenzo[a,d]cyclohepten-5-ylidene)-1-piperidinyl)-3′,4′-dimethoxypropiophenone hydrochloride]?
**A.** Decrease in systolic blood pressure (mmHg) time after administration (hour) 0.5: −108 mmHg; Decrease in systolic blood pressure (mmHg) time after administration (hour) 4: 0 mmHg

**Q.** Which “Decrease in systolic blood pressure … (hour) 0.5” value does the source give for `COc1ccc(C(=O)CCCCN2CCC(=C3c4ccccc4C=Cc4ccccc43)CC2)cc1OC.Cl` [Example 169, 5-(4-(5H-Dibenzo[a,d]cyclohepten-5-ylidene)-1-piperidinyl)-3′,4′-dimethoxyvalerophenone hydrochloride] here?
**A.** −130 mmHg

**Q.** And the “Decrease in systolic blood pressure … (hour) 4” value?
**A.** −4 mmHg

**Q.** What does the source list for `COc1ccc(C(=O)CCCN2CCC(=C3c4ccccc4C=Cc4ccccc43)CC2)c(OC)c1OC.Cl` [Example 171, 4-(4-(5H-Dibenzo[a,d]cyclohepten-5-ylidene)-1-piperidinyl)-2′,3′,4′-trimethoxybutyrophenone hydrochloride]?
**A.** Decrease in systolic blood pressure (mmHg) time after administration (hour) 0.5: −122 mmHg; Decrease in systolic blood pressure (mmHg) time after administration (hour) 4: −8 mmHg

**Q.** Which “Decrease in systolic blood pressure … (hour) 0.5” value does the source give for `COc1cccc(CN2CCC(=C3c4ccccc4C=Cc4ccccc43)CC2)c1OC.Cl` [Example 173, 4-(5H-Dibenzo[a,d]cyclohepten-5-ylidene)-1-(2,3-dimethoxybenzyl)piperidine hydrochloride] here?
**A.** −98 mmHg

**Q.** And the “Decrease in systolic blood pressure … (hour) 4” value?
**A.** −25 mmHg

**Q.** `COc1ccc(CN2CCC(=C3c4ccccc4C=Cc4ccccc43)CC2)cc1OC.Cl` [Example 174, 4-(5H-Dibenzo[a,d]cyclohepten-5-ylidene)-1-(3,4-dimethoxybenzyl)piperidine hydrochloride] was tested. Which “Decrease in systolic blood pressure … (hour) 0.5” value did it give?
**A.** −8 mmHg

**Q.** What about the “Decrease in systolic blood pressure … (hour) 4” value of the same compound?
**A.** −16 mmHg

**Q.** With `COc1ccc(CN2CCC(=C3c4ccccc4C=Cc4ccccc43)CC2)cc1OC` [Example 175, 4-(5H-Dibenzo[a,d]cyclohepten-5-ylidene)-1-(3,4-dimethoxybenzyl)piperidine] as the compound, how does the “Decrease in systolic blood pressure … (hour) 0.5” value read?
**A.** −87 mmHg

**Q.** What about the “Decrease in systolic blood pressure … (hour) 4” value of the same compound?
**A.** −1 mmHg

**Q.** How did the “Decrease in systolic blood pressure … (hour) 0.5” value turn out when `Cl.O=C(CCCN1CCC(=C2c3ccccc3C=Cc3ccccc32)CC1)C1CCCCC1` [Example 176, 1-Cyclohexyl-3,(4-(5H-dibenzo[a,d]cyclohepten-5-ylidene)-1-piperidinyl)propylketone hydrochloride] was run?
**A.** −105 mmHg

**Q.** What about the “Decrease in systolic blood pressure … (hour) 4” value of the same compound?
**A.** −10 mmHg

**Q.** For `Cl.O=C1Cc2ccccc2C(=C2CCN(CCCCC3CCCCC3)CC2)c2ccsc21` [Example 180], which “Decrease in systolic blood pressure … (hour) 0.5” value is on record?
**A.** −25 mmHg

**Q.** What about the “Decrease in systolic blood pressure … (hour) 4” value of the same compound?
**A.** −24 mmHg

**Q.** How did the “Decrease in systolic blood pressure … (hour) 0.5” value turn out when `Cl.c1ccc2c(c1)Oc1ccccc1C2=C1CCN(CCCCC2CCCCC2)CC1` [Example 181] was run?
**A.** −56 mmHg

**Q.** And the “Decrease in systolic blood pressure … (hour) 4” value?
**A.** −27 mmHg

**Q.** `Cl.c1ccc2c(c1)Sc1ccccc1C2=C1CCN(CCCCC2CCCCC2)CC1` [Example 182] was tested. Which “Decrease in systolic blood pressure … (hour) 0.5” value did it give?
**A.** −11 mmHg

**Q.** And the “Decrease in systolic blood pressure … (hour) 4” value?
**A.** −6 mmHg

**Q.** Which “Decrease in systolic blood pressure … (hour) 0.5” value does the source give for `COc1cccc(CN2CCC(=C3c4ccccc4CCc4ccccc43)CC2)c1.Cl` [Example 184, 4-(10,11-dihydro-5H-dibenzo[a,d]cyclohepten-5-ylidene)-1-(3-methoxybenzyl)piperidine hydrochloride] here?
**A.** −16 mmHg

**Q.** And the “Decrease in systolic blood pressure … (hour) 4” value?
**A.** −4 mmHg

**Q.** `CCCCCCCCCCN1CCC(=C2c3ccccc3CCc3ccccc32)CC1.Cl` [Example 185, 1-Decyl-4-(10,11-Dihydro-5H-dibenzo[a,d]cyclohepten-5-ylidene)piperidine hydrochloride] was tested. Which “Decrease in systolic blood pressure … (hour) 0.5” value did it give?
**A.** −66 mmHg

**Q.** And the “Decrease in systolic blood pressure … (hour) 4” value?
**A.** −10 mmHg

**Q.** For `Cl.c1ccc2c(c1)CCc1ccccc1C2=C1CCN(CCCCC2CCCCC2)CC1` [Example 186], which “Decrease in systolic blood pressure … (hour) 0.5” value is on record?
**A.** −95 mmHg

**Q.** And the “Decrease in systolic blood pressure … (hour) 4” value?
**A.** −12 mmHg

**Q.** Which results are given for `COc1ccc(C(=O)CCCN2CCC(=C3c4ccccc4CCc4ccccc43)CC2)cc1OC.Cl` [Example 187, 4-(4-(10,11-Dihydro-5H-dibenzo[a,d]cyclohepten-5-ylidene)-1-piperidinyl)-3′,4′-dimethoxy-butyrophenone hydrochloride]?
**A.** Decrease in systolic blood pressure (mmHg) time after administration (hour) 0.5: −47 mmHg; Decrease in systolic blood pressure (mmHg) time after administration (hour) 4: −9 mmHg

**Q.** With `COc1cc(CN2CCC(=C3c4ccccc4C=Cc4ccccc43)CC2)cc(OC)c1OC` [Example 188, 4-(5H-Dibenzo[a,d]cyclohepten-5-ylidene)-1-(3,4,5-trimethoxybenzyl)piperidine] as the compound, how does the “Decrease in systolic blood pressure … (hour) 0.5” value read?
**A.** −94 mmHg

**Q.** And the “Decrease in systolic blood pressure … (hour) 4” value?
**A.** −12 mmHg

**Q.** What does the source list for `COc1cc(C(=O)N2CCC(=C3c4ccccc4C=Cc4ccccc43)CC2)cc(OC)c1OC` [Example 189, 4-(5H-Dibenzo[a,d]cyclohepten-5-ylidene)-1-(3,4,5-trimethoxybenzoyl)piperidine]?
**A.** Decrease in systolic blood pressure (mmHg) time after administration (hour) 0.5: −72 mmHg; Decrease in systolic blood pressure (mmHg) time after administration (hour) 4: −15 mmHg

**Q.** `Cc1ccccc1C(=O)N1CCC(=C2c3ccccc3C=Cc3ccccc32)CC1` [Example 190, 4-(5H-Dibenzo[a,d]cyclohepten-5-ylidene)-1-(2-methylbenzoyl)piperidine] was tested. Which “Decrease in systolic blood pressure … (hour) 0.5” value did it give?
**A.** −11 mmHg

**Q.** And the “Decrease in systolic blood pressure … (hour) 4” value?
**A.** −15 mmHg

**Q.** With `O=C(Cc1ccc(F)cc1)N1CCC(=C2c3ccccc3C=Cc3ccccc32)CC1` [Example 191, 4-(5H-Dibenzo[a,d]cyclohepten-5-ylidene)-1-(2-(4-fluorophenyl)acetyl)piperidine] as the compound, how does the “Decrease in systolic blood pressure … (hour) 0.5” value read?
**A.** −29 mmHg

**Q.** And the “Decrease in systolic blood pressure … (hour) 4” value?
**A.** −20 mmHg

**Q.** With `COc1cccc(C=CC(=O)N2CCC(=C3c4ccccc4C=Cc4ccccc43)CC2)c1OC` [Example 192, 4-(5H-Dibenzo[a,d]cyclohepten-5-ylidene)-1-(2-dimethoxycinnamoyl)piperidine] as the compound, how does the “Decrease in systolic blood pressure … (hour) 0.5” value read?
**A.** −25 mmHg

**Q.** What about the “Decrease in systolic blood pressure … (hour) 4” value of the same compound?
**A.** −36 mmHg

Reference: patent USRE38257E1, “Piperdine derivatives and hypotensives containing the same” (Ajinomoto Co., Inc., priority 1988, dated 2003)
